From ChEMBL document CHEMBL1201862, “PubChem BioAssay data set” (2004)
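Values below derive from 48-hour exposures of cells grown in 96-well plates, with endpoints linearly interpolated between the two concentrations bracketing the appropriate inhibition level. GI50 marks 50% less growth.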 Activity calls are given as the source filed them. No stated cut-off is given here; in the data, active = GI50 up to about 1.1 µM and inactive = higher. Where a SMILES comes first, the peptide text is derived from it. The star is where a group is joined. Cbz = O=C(OCc1ccccc1)*; Boc = CC(C)(C)OC(=O)*; OSu = O=C1CCC(=O)N1O*; Bn = c1ccc(C*)cc1

Key:
Assay in all cases: NCI tumour cell line growth inhibition, 48 h
786-0 = test system: 786-0
CAKI-1 = test system: CAKI-1
COLO 205 = test system: COLO 205
DU-145 = test system: DU-145
HCC 2998 = test system: HCC 2998
HCT-15 = test system: HCT-15
HL-60 = test system: HL-60
IGROV-1 = test system: IGROV-1
MCF7 = test system: MCF7
MDA-N = test system: MDA-N
Malme-3M = test system: Malme-3M
NCI-H23 = test system: NCI-H23
SN12C = test system: SN12C
T47D = test system: T47D
TK-10 = test system: TK-10
ACHN = test system: ACHN
NCI/ADR-RES = test system: NCI/ADR-RES
SF-539 = test system: SF-539
Hs-578T = test system: Hs-578T
BT-549 = test system: BT-549

Row | SMILES | GI50 (786-0) | GI50 (CAKI-1) | GI50 (COLO 205) | GI50 (DU-145) | GI50 (HCC 2998) | GI50 (HCT-15) | GI50 (HL-60) | GI50 (IGROV-1) | GI50 (MCF7) | GI50 (MDA-N) | GI50 (Malme-3M) | GI50 (NCI-H23) | GI50 (SN12C) | GI50 (T47D) | GI50 (TK-10) | GI50 (ACHN) | GI50 (NCI/ADR-RES) | GI50 (SF-539) | GI50 (Hs-578T) | GI50 (BT-549)
1 | CCN(CC)CCN1CCN=C2c3cc(OC)ccc3Nc3c([N+](=O)[O-])ccc1c32 | 0.369 µM (active) | 1.93 µM (inactive) | 1 µM (active) | 2.8 µM (inactive) | 0.555 µM (active) | 0.845 µM | 0.519 µM (active) | 1.72 µM (inactive) | 0.551 µM (active) | 1.04 µM (active) | 1.54 µM (inactive) | 1.1 µM (active) | 0.667 µM (active) | 5.65 µM (inactive) | 2.8 µM (inactive) | – | – | – | – | –
2 | COc1cc(NCc2ccc3nc(-c4ccccc4)c(N)nc3c2)cc(OC)c1OC | 35.6 µM (inactive) | 28.8 µM (inactive) | 18.8 µM (inactive) | 36.6 µM (inactive) | 51.8 µM (inactive) | 28.7 µM | 25.6 µM (inactive) | 43.6 µM (inactive) | 28.5 µM (inactive) | 27.5 µM (inactive) | 24.9 µM (inactive) | 21.4 µM (inactive) | 38.5 µM (inactive) | 25.9 µM (inactive) | 41.4 µM (inactive) | 29.4 µM (inactive) | 22.2 µM (inactive) | 29.7 µM (inactive) | – | –
3 | COc1ccc(C2=CC(c3ccc4c(c3)OCO4)c3c(c4ccccc4oc3=O)O2)cc1OC (configuration not stated) | 1.13 µM (inactive) | 1.1 µM (active) | 1.51 µM (inactive) | 2.25 µM (inactive) | 1.46 µM (inactive) | 0.546 µM | 0.351 µM (active) | 0.743 µM (active) | 0.454 µM (active) | 0.324 µM (active) | > 81.8 µM (inactive) | 2.51 µM (inactive) | 5.56 µM (inactive) | 0.685 µM (active) | 2.75 µM (inactive) | 1.5 µM (inactive) | 1.41 µM (inactive) | 0.69 µM (active) | 1.65 µM (inactive) | –
4 | Cc1ccc(N2C3=C(CC4=C2CC(C)(C)CC4=O)C(=O)CC(C)(C)C3)cc1 | > 100 µM (inactive) | > 100 µM (inactive) | > 100 µM (inactive) | > 100 µM (inactive) | > 100 µM (inactive) | > 100 µM | > 100 µM (inactive) | > 100 µM (inactive) | > 100 µM (inactive) | > 100 µM (inactive) | > 100 µM (inactive) | > 100 µM (inactive) | > 100 µM (inactive) | – | > 100 µM (inactive) | > 100 µM (inactive) | > 100 µM (inactive) | > 100 µM (inactive) | 20.6 µM (inactive) | > 100 µM (inactive)
5 | O=S(=O)(O)c1cc(/N=N/c2c(O)ccc3ccccc23)c2c(S(=O)(=O)O)cccc2c1 | > 100 µM (inactive) | > 100 µM (inactive) | > 100 µM (inactive) | – | > 100 µM (inactive) | > 100 µM | > 100 µM (inactive) | > 100 µM (inactive) | > 100 µM (inactive) | – | > 100 µM (inactive) | > 100 µM (inactive) | – | – | > 100 µM (inactive) | > 100 µM (inactive) | > 100 µM (inactive) | > 100 µM (inactive) | > 100 µM (inactive) | > 100 µM (inactive)
6 | CC(C)(C)OC(=O)NC(Cc1ccc(OCc2ccccc2)cc1)C(=O)NC(CCCCNC(=O)OCc1ccccc1)C(=O)ON1C(=O)CCC1=O (configuration not stated) (Boc-Tyr(Bn)-Lys(Cbz)-OSu; configuration not given here) | 18.9 µM (inactive) | – | 27 µM (inactive) | – | 16.5 µM (inactive) | 16.7 µM | 22 µM (inactive) | 16.8 µM (inactive) | 19.8 µM (inactive) | 15.7 µM (inactive) | 23.1 µM (inactive) | 17.8 µM (inactive) | 16.7 µM (inactive) | – | 29.6 µM (inactive) | 20.7 µM (inactive) | – | – | 20.3 µM (inactive) | 21.6 µM (inactive)
7 | ClC1=C(Cl)C2OC3C=CCC3OC2C(Cl)=C1Cl (configuration not stated) | > 100 µM (inactive) | > 100 µM (inactive) | – | > 100 µM (inactive) | 29.4 µM (inactive) | 32.1 µM | 36.1 µM (inactive) | > 100 µM (inactive) | 0.429 µM (active) | 51.3 µM (inactive) | – | 56.4 µM (inactive) | – | 2.47 µM (inactive) | > 100 µM (inactive) | 91 µM (inactive) | 53.6 µM (inactive) | > 100 µM (inactive) | 27.5 µM (inactive) | –
8 | CCCCOCn1c(=O)[nH]c(=O)c2ccccc21 | > 100 µM (inactive) | > 100 µM (inactive) | > 100 µM (inactive) | > 100 µM (inactive) | – | > 100 µM | 68.4 µM (inactive) | 49 µM (inactive) | 68.9 µM (inactive) | > 100 µM (inactive) | – | – | > 100 µM (inactive) | – | > 100 µM (inactive) | 32.9 µM (inactive) | 22.8 µM (inactive) | > 100 µM (inactive) | – | –
9 | CC(NC(=O)OC(C)(C)C)C(=O)NC(Cc1ccccc1)C(=O)NCC(=O)Oc1c(Cl)c(Cl)c(Cl)c(Cl)c1Cl (configuration not stated) | 21.2 µM (inactive) | – | 29.7 µM (inactive) | – | 15.3 µM (inactive) | > 10 µM | 24.7 µM (inactive) | 22.8 µM (inactive) | 21.9 µM (inactive) | 28.2 µM (inactive) | 20.7 µM (inactive) | 18.7 µM (inactive) | 14.5 µM (inactive) | – | 27 µM (inactive) | 25 µM (inactive) | – | – | 37.5 µM (inactive) | 23.5 µM (inactive)
10 | COc1cc(Br)cc2cc(-c3cn4c(n3)sc3ccccc34)c(=O)oc12 | 25.1 µM (inactive) | 22.9 µM (inactive) | 38.7 µM (inactive) | 17.7 µM (inactive) | – | 23.6 µM | 15.6 µM (inactive) | 14.7 µM (inactive) | 35.6 µM (inactive) | – | – | 21.2 µM (inactive) | 24.7 µM (inactive) | – | 45.4 µM (inactive) | 32 µM (inactive) | 30.7 µM (inactive) | 30.9 µM (inactive) | 15.6 µM (inactive) | 24.3 µM (inactive)
11 | COC(=O)CC1C2CC3C(C2=O)C13 (configuration not stated) | > 100 µM (inactive) | > 100 µM (inactive) | > 100 µM (inactive) | > 100 µM (inactive) | > 100 µM (inactive) | > 100 µM | 33.6 µM (inactive) | > 100 µM (inactive) | > 100 µM (inactive) | > 100 µM (inactive) | > 100 µM (inactive) | > 100 µM (inactive) | > 100 µM (inactive) | > 100 µM (inactive) | > 100 µM (inactive) | > 100 µM (inactive) | > 100 µM (inactive) | > 100 µM (inactive) | > 100 µM (inactive) | –
12 | [N-]=[N+]=NCN1C(=O)C2C3C=CC(C2C1=O)C1C2C(=O)N(CN=[N+]=[N-])C(=O)C2C31 (configuration not stated) | > 100 µM (inactive) | > 100 µM (inactive) | > 100 µM (inactive) | > 100 µM (inactive) | 11.7 µM (inactive) | > 100 µM | – | > 100 µM (inactive) | > 100 µM (inactive) | > 100 µM (inactive) | – | > 100 µM (inactive) | > 100 µM (inactive) | > 100 µM (inactive) | > 100 µM (inactive) | > 100 µM (inactive) | > 100 µM (inactive) | > 100 µM (inactive) | > 100 µM (inactive) | –
13 | O=C(/C=C/c1ccccc1)CSc1nc[nH]n1 | > 100 µM (inactive) | > 100 µM (inactive) | > 100 µM (inactive) | > 100 µM (inactive) | > 100 µM (inactive) | 41.3 µM | 45.9 µM (inactive) | > 100 µM (inactive) | 36.4 µM (inactive) | > 100 µM (inactive) | > 100 µM (inactive) | > 100 µM (inactive) | > 100 µM (inactive) | – | > 100 µM (inactive) | > 100 µM (inactive) | > 100 µM (inactive) | > 100 µM (inactive) | – | > 100 µM (inactive)
14 | Cc1nc2ccc(Cl)cc2c2c1CCS2 | 66.4 µM (inactive) | 55.2 µM (inactive) | 48.9 µM (inactive) | 91.2 µM (inactive) | 77.4 µM (inactive) | > 100 µM | 27.2 µM (inactive) | 47.8 µM (inactive) | 33.3 µM (inactive) | > 100 µM (inactive) | 90.2 µM (inactive) | 75 µM (inactive) | 42 µM (inactive) | > 100 µM (inactive) | 69.2 µM (inactive) | 45.1 µM (inactive) | 51.4 µM (inactive) | 87.5 µM (inactive) | 28.6 µM (inactive) | –
15 | Nc1ccc2c(c1)Nc1c3ccccc3nc3cccc-2c13 | 1.21 µM (inactive) | 1.54 µM (inactive) | 1.34 µM (inactive) | 1.59 µM (inactive) | 1.2 µM (inactive) | – | 3.66 µM (inactive) | 1.25 µM (inactive) | 0.794 µM (active) | 1.42 µM (inactive) | 1.85 µM (inactive) | 1.48 µM (inactive) | 1.29 µM (inactive) | – | 2.13 µM (inactive) | 1.43 µM (inactive) | 1.66 µM (inactive) | 1.66 µM (inactive) | 2.03 µM (inactive) | 3.6 µM (inactive)
16 | COc1cccc2c(=O)c3c(O)c4cc(N(C)C)ccc4c(OC(C)=O)c3oc12 | 11.7 µM (inactive) | 5.24 µM (inactive) | 4.1 µM (inactive) | 17.8 µM (inactive) | 15 µM (inactive) | 12.7 µM | 3.96 µM (inactive) | – | 14.5 µM (inactive) | 13.7 µM (inactive) | 2.56 µM (inactive) | 17.2 µM (inactive) | 12.9 µM (inactive) | – | 15.3 µM (inactive) | 15.2 µM (inactive) | 21.7 µM (inactive) | 17.2 µM (inactive) | 14.3 µM (inactive) | 10.2 µM (inactive)
